Data: US20230365582A1, “NOVEL COMPOUNDS HAVING INHIBITORY ACTIVITY ON PROSTAGLANDIN E2 RECEPTOR AND USES THEREOF” (KANAPH THERAPEUTICS INC., priority 2020, published 2023)

How the values were obtained:
[1] = target: T1, hEP2 (Homo sapiens, UniProt P43116); assay: hEP2 cAMP assay; type: cell-based; details: HEK293 cells overexpressing hEP2; PGE2 agonist 400 pM; graded per Table 21; read-out: IC50 (nM) EP2 cAMP
T1 construct: expressed in transfected cells; host or cells: HEK293
Procedure, shortened: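 HEK293 cells overexpressing hEP2, serum-starved 4 h, then 1,000 cells/well treated with compound (10 μM–0.001 nM) plus 400 pM PGE2 (about EC50-80) in HBSS buffer with 0.5 mM IBMX for 12 min at room temperature. cAMP measured by TR-FRET (665/615 nm) as % of DMSO control; IC50 from 4-parameter fit, median of repeats.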

[2] = target: T2, hEP4 (Homo sapiens, UniProt P35408); assay: hEP4 cAMP assay; type: cell-based; details: HEK293 cells overexpressing hEP4; PGE2 agonist 20 nM; graded per Table 21; read-out: IC50 (nM) EP4 cAMP
T2 construct: expressed in transfected cells; host or cells: HEK293
T2 sequence (P35408 whole entry): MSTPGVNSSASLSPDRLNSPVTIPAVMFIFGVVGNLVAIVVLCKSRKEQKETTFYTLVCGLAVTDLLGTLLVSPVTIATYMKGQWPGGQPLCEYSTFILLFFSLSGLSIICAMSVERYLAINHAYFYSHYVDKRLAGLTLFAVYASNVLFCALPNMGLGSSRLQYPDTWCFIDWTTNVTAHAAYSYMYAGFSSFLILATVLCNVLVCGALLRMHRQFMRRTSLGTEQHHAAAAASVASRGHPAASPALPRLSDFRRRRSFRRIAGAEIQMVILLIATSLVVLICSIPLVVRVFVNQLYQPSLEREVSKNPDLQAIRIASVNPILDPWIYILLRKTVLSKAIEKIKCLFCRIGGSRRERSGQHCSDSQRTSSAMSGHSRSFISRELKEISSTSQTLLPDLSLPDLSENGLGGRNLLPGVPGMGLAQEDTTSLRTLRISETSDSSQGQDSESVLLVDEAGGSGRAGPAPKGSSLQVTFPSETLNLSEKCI
Procedure, shortened: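 HEK293 cells overexpressing hEP4, starved 4 h, were treated with compound (10 μM-0.001 nM) plus 20 nM PGE2 (EC50-80) in HBSS buffer with 0.5 mM IBMX for 18.5 min at room temperature. cAMP was read by TR-FRET (665/615 nm) as % of DMSO control; IC50 from 4-parameter fit, median of multiple experiments.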

T1 sequence (P43116 whole entry): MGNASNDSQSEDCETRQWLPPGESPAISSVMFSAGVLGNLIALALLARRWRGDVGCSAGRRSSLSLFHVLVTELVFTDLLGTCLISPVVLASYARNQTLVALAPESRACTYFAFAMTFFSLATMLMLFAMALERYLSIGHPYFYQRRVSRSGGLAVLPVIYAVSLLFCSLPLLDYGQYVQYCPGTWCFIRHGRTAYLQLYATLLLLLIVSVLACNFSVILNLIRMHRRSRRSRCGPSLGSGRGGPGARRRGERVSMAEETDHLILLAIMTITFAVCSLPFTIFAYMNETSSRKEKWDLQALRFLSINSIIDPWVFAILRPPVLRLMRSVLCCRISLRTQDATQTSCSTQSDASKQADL

IC50 [1] [nM] | IC50 [2] [nM] | Compound
5000 to 10000 | < 500 | Cc1sc(C)c(C(=O)NC2CC3(C2)CC(C(=O)O)C3)c1Cc1ccc(-c2cc(F)cc(CO)c2)cc1 (stereo not drawn) [Example 60, 6-(4-((3′-fluoro-5′-(hydroxymethyl)-[1,1′-biphenyl]-4-yl)methyl)-2,5-dimethylthiophene-3-carboxamido)spiro[3.3]heptane-2-carboxylic acid]
> 10000 | 500 to 5000 | COc1cc(-c2ccc(Cc3c(C)sc(C)c3C(=O)NC3CC4(C3)CC(C(=O)O)C4)cc2)cc(C2(O)COC2)c1 (stereo not drawn) [Example 61, 6-(4-((3′-(3-hydroxyoxetane-3-yl)-5′-methoxy-[1,1′-biphenyl]-4-yl)methyl)-2,5-dimethylthiophene-3-carboxamido)spiro[3.3]heptane-2-carboxylic acid]
500 to 5000 | < 500 | COc1cc(-c2ccc(Cc3c(C)sc(C)c3C(=O)NC3CC4(C3)CC(C(=O)O)C4)cc2)cc(N2CCC2=O)c1 (stereo not drawn) [Example 62, 6-(4-((3′-methoxy-5′-(2-oxoazetidin-1-yl)-[1,1′-biphenyl]-4-yl)methyl)-2,5-dimethylthiophene-3-carboxamido)spiro[3.3]heptane-2-carboxylic acid]
< 500 | < 500 | [H][C@]1(C(=O)O)C[C@]2(C[C@H](NC(=O)c3c(C)sc(C)c3Cc3ccc(-c4cc(OC)cc(N5CCC5=O)c4)cc3)C2)C1 (stereo partly drawn) [Example 63, (2R,4R,6R)-6-(4-((3′-methoxy-5′-(2-oxoazetidin-1-yl)-[1,1′-biphenyl]-4-yl)methyl)-2,5-dimethylthiophene-3-carboxamido)spiro[3.3]heptane-2-carboxylic acid]
> 10000 | 500 to 5000 | Cc1sc(C)c(C(=O)NC2CC3(C2)CC(C(=O)O)C3)c1Cc1ccc(-c2cc(F)cc(CN)c2)cc1 (stereo not drawn) [Example 64, 6-(4-((3′-(aminomethyl)-5′-fluoro-[1,1′-biphenyl]-4-yl)methyl)-2,5-dimethylthiophene-3-carboxamido)spiro[3.3]heptane-2-carboxylic acid]
> 10000 | 500 to 5000 | Cc1sc(C)c(C(=O)NC2CC3(C2)CC(C(=O)O)C3)c1Cc1ccc(-c2cc(F)cc(C3CNC3)c2)cc1 (stereo not drawn) [Example 65, 6-(4-((3′-(azetidin-3-yl)-5′-fluoro-[1,1′-biphenyl]-4-yl)methyl)-2,5-dimethylthiophene-3-carboxamido)spiro[3.3]heptane-2-carboxylic acid]
> 10000 | 500 to 5000 | COc1cc(CN)cc(-c2ccc(Cc3c(C)sc(C)c3C(=O)NC3CC4(C3)CC(C(=O)O)C4)cc2)c1 (stereo not drawn) [Example 66, 6-(4-((3′-(aminomethyl)-5′-methoxy-[1,1′-biphenyl]-4-yl)methyl)-2,5-dimethylthiophene-3-carboxamido)spiro[3.3]heptane-2-carboxylic acid]
> 10000 | 5000 to 10000 | Cc1sc(C)c(C(=O)NC2CC3(C2)CC(C(=O)O)C3)c1Cc1ccc(C2CCCCC2)cc1 (stereo not drawn) [Example 67, 6-(4-(4-cyclohexylbenzyl)-2,5-dimethylthiophene-3-carboxamido)spiro[3.3]heptane-2-carboxylic acid]
> 10000 | > 10000 | Cc1sc(C)c(C(=O)NC2CC3(C2)CC(C(=O)O)C3)c1Cc1ccc(C2CCNCC2)cc1 (stereo not drawn) [Example 68, 6-(2,5-dimethyl-4-(4-(piperidin-4-yl)benzyl)thiophene-3-carboxamido)spiro[3.3]heptane-2-carboxylic acid]
500 to 5000 | < 500 | Cc1sc(C)c(C(=O)NC2CC3(C2)CC(C(=O)O)C3)c1Cc1ccc(-c2ccc(F)cc2)cc1 (stereo not drawn) [Example 69, 6-(4-((4′-fluoro-[1,1′-biphenyl]-4-yl)methyl)-2,5-dimethylthiophene-3-carboxamido)spiro[3.3]heptane-2-carboxylic acid]
5000 to 10000 | < 500 | Cc1sc(C)c(C(=O)NC2CC3(C2)CC(C(=O)O)C3)c1Cc1ccc(-c2cc(F)cc(C#N)c2)cc1 (stereo not drawn) [Example 70, 6-(4-((3′-cyano-5′-fluoro-[1,1′-biphenyl]-4-yl)methyl)-2,5-dimethylthiophene-3-carboxamido)spiro[3.3]heptane-2-carboxylic acid]
500 to 5000 | < 500 | Cc1sc(C)c(C(=O)NC2CC3(C2)CC(C(=O)O)C3)c1Cc1ccc(-c2cc(O)cc(F)c2)cc1 (stereo not drawn) [Example 71, 6-(4-((3′-fluoro-5′-hydroxy-[1,1′-biphenyl]-4-yl)methyl)-2,5-dimethylthiophene-3-carboxamido)spiro[3.3]heptane-2-carboxylic acid]
> 10000 | > 10000 | Cc1sc(C)c(C(=O)NC2CC3(C2)CC(C(=O)O)C3)c1Cc1ccc(-c2ccnc(O)c2)cc1 (stereo not drawn) [Example 72, 6-(4-(4-(2-hydroxypyridin-4-yl)benzyl)-2,5-dimethylthiophene-3-carboxamido)spiro[3.3]heptane-2-carboxylic acid]
> 10000 | > 10000 | Cc1sc(C)c(C(=O)N(C)C2CC3(CC(C(=O)O)C3)C2)c1Cc1ccc(-c2ccccc2)cc1 (stereo not drawn) [Example 73, 6-(4-([1,1′-biphenyl]-4-ylmethyl)-N,2,5-trimethylthiophene-3-carboxamido)spiro[3.3]heptane-2-carboxylic acid]
> 10000 | > 10000 | Cc1sc(C)c(C(=O)NC2CC3(C2)CC(C(=O)O)C3)c1Oc1ccc(-c2ccccc2)cc1 (stereo not drawn) [Example 74, 6-(4-([1,1′-biphenyl]-4-yloxy)-2,5-dimethylthiophene-3-carboxamido)spiro[3.3]heptane-2-carboxylic acid]
> 10000 | > 10000 | Cc1sc(C)c(C(=O)NC2CC3(C2)CC(C(=O)O)C3)c1Nc1ccc(-c2ccccc2)cc1 (stereo not drawn) [Example 75, 6-(4-([1,1′-biphenyl]-4-ylamino)-2,5-dimethylthiophene-3-carboxamido)spiro[3.3]heptane-2-carboxylic acid]
> 10000 | 500 to 5000 | Cc1sc(C)c(N(C)c2ccc(-c3ccccc3)cc2)c1C(=O)NC1CC2(C1)CC(C(=O)O)C2 (stereo not drawn) [Example 76, 6-(4-([1,1′-biphenyl]-4-yl(methyl)amino)-2,5-dimethylthiophene-3-carboxamido)spiro[3.3]heptane-2-carboxylic acid]
> 10000 | > 10000 | Cc1sc(C)c(C(=O)NC2CC3(C2)CC(C(=O)O)C3)c1CN1CCN(c2ccccc2)CC1 (stereo not drawn) [Example 77, 6-(2,5-dimethyl-4-((4-phenylpiperazin-1-yl)methyl)thiophene-3-carboxamido)spiro[3.3]heptane-2-carboxylic acid]
> 10000 | 5000 to 10000 | Cc1sc(C)c(C(=O)NC2CC3(C2)CC(C(=O)O)C3)c1Cn1cc(-c2ccccc2)cn1 (stereo not drawn) [Example 78, 6-(2,5-dimethyl-4-((4-phenyl-1H-pyrazol-1-yl)methyl)thiophene-3-carboxamido)spiro[3.3]heptane-2-carboxylic acid]
< 500 | < 500 | O=C(NC1CC2(C1)CC(C(=O)O)C2)c1csc2ccn(Cc3ccc(-c4ccccc4)cc3)c12 (stereo not drawn) [Example 79, 6-(4-([1,1′-biphenyl]-4-ylmethyl)-4H-thieno[3,2-b]pyrrole-3-carboxamido)spiro[3.3]heptane-2-carboxylic acid]
500 to 5000 | < 500 | Cc1sc2ccn(Cc3ccc(-c4ccccc4)cc3)c2c1C(=O)NC1CC2(C1)CC(C(=O)O)C2 (stereo not drawn) [Example 80, 6-(4-([1,1′-biphenyl]-4-ylmethyl)-2-methyl-4H-thieno[3,2-b]pyrrole-3-carboxamido)spiro[3.3]heptane-2-carboxylic acid]
500 to 5000 | > 10000 | Cc1cn(Cc2ccc(-c3ccccc3)cc2)c2c(C(=O)NC3CC4(C3)CC(C(=O)O)C4)csc12 (stereo not drawn) [Example 81, 6-(4-([1,1′-biphenyl]-4-ylmethyl)-6-methyl-4H-thieno[3,2-b]pyrrole-3-carboxamido)spiro[3.3]heptane-2-carboxylic acid]
500 to 5000 | < 500 | O=C(NC1CC2(C1)CC(C(=O)O)C2)c1c(Cl)sc2ccn(Cc3ccc(-c4ccccc4)cc3)c12 (stereo not drawn) [Example 82, 6-(4-([1,1′-biphenyl]-4-ylmethyl)-2-chloro-4H-thieno[3,2-b]pyrrole-3-carboxamido)spiro[3.3]heptane-2-carboxylic acid]
500 to 5000 | > 10000 | O=C(N[C@H]1C[C@H](C(=O)O)C1)c1csc2ccn(Cc3ccc(-c4ccccc4)cc3)c12 [Example 83, (1R,3R)-3-(4-([1,1′-biphenyl]-4-ylmethyl)-4H-thieno[3,2-b]pyrrole-3-carboxamido)cyclobutane-1-carboxylic acid]
> 10000 | > 10000 | O=C(N[C@H]1C[C@@H](C(=O)O)C1)c1csc2ccn(Cc3ccc(-c4ccccc4)cc3)c12 [Example 84, (1S,3S)-3-(4-([1,1′-biphenyl]-4-ylmethyl)-4H-thieno[3,2-b]pyrrole-3-carboxamido)cyclobutane-1-carboxylic acid]
< 500 | < 500 | COc1cccc(-c2ccc(Cn3ccc4scc(C(=O)NC5CC6(C5)CC(C(=O)O)C6)c43)cc2)c1 (stereo not drawn) [Example 85, 6-(4-((3′-methoxy-[1,1′-biphenyl]-4-yl)methyl)-4H-thieno[3,2-b]pyrrole-3-carboxamido)spiro[3.3]heptane-2-carboxylic acid]
500 to 5000 | 5000 to 10000 | O=C(NC12CCC(C(=O)O)(CC1)CC2)c1csc2ccn(Cc3ccc(-c4ccccc4)cc3)c12 [Example 88, 4-(4-([1,1′-biphenyl]-4-ylmethyl)-4H-thieno[3,2-b]pyrrole-3-carboxamido)bicyclo[2.2.2]octane-1-carboxylic acid]
